According to publication PMC10709440, “High-throughput ligand profile characterization in novel cell lines expressing seven heterologous insect olfactory receptors for the detection of volatile plant biomarkers” (Scientific Reports, 2023):
Read-outs that look alike come from different tables or passages of the source.

How the values were obtained:
[1] = molecular target: T1, Drosophila OR71a (Drosophila melanogaster, UniProt Q9VUK5); test: Calcium ion fluorescence (GCaMP6) assay, OR71a stable HEK293 cell line; assay type: cell-based; conditions: for OR71a response (VUAA1-normalized) at 1 μM / OR71a response (VUAA1-normalized) at 10 μM / OR71a response (VUAA1-normalized) at 100 μM / Average response: OR71a cell line; for Average response: VUAA1-normalized response, mean of biological replicates; for activation at 1 µM / activation at 10 µM / activation at 100 µM: HEK293, read-out: OR71a response (VUAA1-normalized response)
T1 construct: expressed in transfected cells
T1 sequence (Q9VUK5 1-378): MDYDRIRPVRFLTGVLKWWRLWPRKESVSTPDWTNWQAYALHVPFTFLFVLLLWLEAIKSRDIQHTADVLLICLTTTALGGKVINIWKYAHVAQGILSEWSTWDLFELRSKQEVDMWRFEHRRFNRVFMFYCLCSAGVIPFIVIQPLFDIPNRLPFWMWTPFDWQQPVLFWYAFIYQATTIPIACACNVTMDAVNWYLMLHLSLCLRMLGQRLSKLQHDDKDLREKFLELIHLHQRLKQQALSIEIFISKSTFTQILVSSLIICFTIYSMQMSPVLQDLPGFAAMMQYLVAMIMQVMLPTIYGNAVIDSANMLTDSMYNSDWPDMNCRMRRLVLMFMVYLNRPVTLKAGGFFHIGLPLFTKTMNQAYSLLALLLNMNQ
T1 sequence (Q9VNB5 1-486 partner): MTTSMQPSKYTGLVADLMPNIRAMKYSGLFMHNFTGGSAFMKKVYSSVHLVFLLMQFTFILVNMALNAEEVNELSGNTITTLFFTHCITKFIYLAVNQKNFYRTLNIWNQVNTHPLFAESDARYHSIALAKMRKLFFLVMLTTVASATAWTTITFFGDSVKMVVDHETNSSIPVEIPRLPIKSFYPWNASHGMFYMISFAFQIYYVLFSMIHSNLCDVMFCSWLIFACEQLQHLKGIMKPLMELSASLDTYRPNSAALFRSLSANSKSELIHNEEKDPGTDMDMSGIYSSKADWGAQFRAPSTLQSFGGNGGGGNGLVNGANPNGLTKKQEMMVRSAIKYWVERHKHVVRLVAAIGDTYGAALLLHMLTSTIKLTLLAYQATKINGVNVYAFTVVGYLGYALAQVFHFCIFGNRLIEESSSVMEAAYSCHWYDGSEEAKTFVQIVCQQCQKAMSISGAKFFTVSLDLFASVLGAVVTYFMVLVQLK
Method: (§1) These VUAA1 normalized ∆F values were used to compare the different receptors and ligands.
(§2) The concentration-dependent effect of the reference ligands on their cognate cell lines was examined in more detail. Twelve different ligand concentrations were measured on each cell line in an overall 0.01 μM to 100 μM concentration range with 5 repetitions with three technical replicates each time.
(§3) Twelve thousand to 18,000 cells were plated into each well of a black wall, transparent bottom 384-well microplate (Greiner) 48 h or 72 h before the measurements and were simultaneously treated with 1 μg/mL doxycycline. […] The plate has 24 columns, thus we could record responses in up to eight different cell lines in each plate. On the day of the experiment, the growth medium was replaced with 20 µL assay buffer/well (140 mM NaCl, 5 mM KCl, 2 mM CaCl2, 1 mM MgCl2, 5 mM HEPES-Na, 20 mM glucose, pH 7.3, 340 mOsm). […] Baseline fluorescence (F0) was recorded for 5 s, after which 7 µL VOC buffer (140 mM NaCl, 5 mM KCl, 2 mM CaCl2, 1 mM MgCl2, 5 mM HEPES-Na, 31 mM glucose, 0.1% DMSO, pH 7.3, 340 mOsm) was injected into each well in one row and the fluorescence response was recorded for an additional 30 s, at a rate of one read/sec. VOC solutions (VOC buffer with 4× concentration of the final measured VOC concentration, 9 µL/well was injected) were measured on the same wells in a second round with the same protocol. Each individual concentration of a specific VOC sample was recorded in three wells for the same cell line on the same microplate. The raw data were exported in xls file format, F0 and FMAX values, and the fluorescence intensity changes (∆F) were calculated in Excel (Microsoft) (Supplementary file Data summary.xlsx) using the following equation: ΔF=FMAX-F0/F0 (see also Fig. 1C). On each plate, we recorded the response of each cell line to 50 µM VUAA1. The average of these ∆F values of each cell line were used to calculate the VUAA1-normalized values for the rest of the plate, by dividing VOC response ∆F values by the average VUAA1 response ∆F value of the corresponding OR cell line. Each VOC-OR combination was measured three times as technical replicates. […] The average of these replicates were used as one ∆F and VUAA1-normalized ∆F in the following analysis.
(§4) In the next rows we tested the reference VOCs (or other VOCs known to activate the corresponding cell lines), in order to test if all cell lines are responsive. The remaining rows were used to test VOCs with unknown effect.
(§5) The recorded FMAX, F0, ∆F, VUAA1-normalized ∆F values, as well as the OR name, the name of the tested sample, and the final concentration for each well were copied into supplementary file Data summary.xlsx, that was used to summarize all the plates recorded. Here, the averages of the measurements were calculated for each receptor-VOC-concentration combination.

[2] = molecular target: T2, Drosophila OR13a (Drosophila melanogaster, UniProt Q9VXL0); test: Calcium ion fluorescence (GCaMP6) assay, OR13a stable HEK293 cell line; assay type: cell-based; conditions: for OR13a response (VUAA1-normalized) at 1 μM / OR13a response (VUAA1-normalized) at 10 μM / OR13a response (VUAA1-normalized) at 100 μM: OR13a cell line
T2 construct: expressed in transfected cells
T2 sequence (Q9VXL0 1-418): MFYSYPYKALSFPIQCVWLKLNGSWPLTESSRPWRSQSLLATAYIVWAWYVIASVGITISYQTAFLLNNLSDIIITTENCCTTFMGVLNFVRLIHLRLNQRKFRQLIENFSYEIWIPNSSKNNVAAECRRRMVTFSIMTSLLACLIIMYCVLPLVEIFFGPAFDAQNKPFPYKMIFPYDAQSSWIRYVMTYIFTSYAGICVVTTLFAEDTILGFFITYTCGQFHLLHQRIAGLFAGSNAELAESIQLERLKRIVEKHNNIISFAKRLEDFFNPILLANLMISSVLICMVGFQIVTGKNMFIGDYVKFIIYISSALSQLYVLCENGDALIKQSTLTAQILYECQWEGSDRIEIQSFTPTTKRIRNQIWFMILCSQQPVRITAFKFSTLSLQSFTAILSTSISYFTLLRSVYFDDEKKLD
T2 sequence (Q9VNB5 1-486 partner): T1 sequence (Q9VNB5 1-486 partner)
Method: as §1, §2, §3, §4, §5

[3] = ligand concentration 1 (unit not given), threshold 0.05, below shown as 0
[4] = ligand concentration 10 (unit not given), threshold 0.05, below shown as 0
[5] = ligand concentration 100 (unit not given), threshold 0.05, below shown as 0
[6] = HEK293, read-out: OR13a Average response (VUAA1-normalized), 1 μM VOC, 50 μM VUAA1 = 1, responses not exceeding 0.05 considered 0
[7] = HEK293, read-out: OR13a Average response (VUAA1-normalized), 10 μM VOC, 50 μM VUAA1 = 1, responses not exceeding 0.05 considered 0
[8] = HEK293, read-out: OR13a Average response (VUAA1-normalized), 100 μM VOC, 50 μM VUAA1 = 1, responses not exceeding 0.05 considered 0
[9] = concentration 1, normalized fluorescence change, values below 0.05 threshold given as 0
[10] = concentration 10, normalized fluorescence change, values below 0.05 threshold given as 0
[11] = concentration 100, normalized fluorescence change, values below 0.05 threshold given as 0
[12] = HEK293, read-out: OR13a response (VUAA1-normalized response), VOC concentration 1 μM
[13] = HEK293, read-out: OR13a response (VUAA1-normalized response), VOC concentration 10 μM
[14] = HEK293, read-out: OR13a response (VUAA1-normalized response), VOC concentration 100 μM
[15] = ligand concentration 1 (unit not given), 0.05 threshold, values below shown as 0
[16] = ligand concentration 10 (unit not given), 0.05 threshold, values below shown as 0
[17] = ligand concentration 100 (unit not given), 0.05 threshold, values below shown as 0
[18] = 1 μM VOC, 50 μM VUAA1 = 1, responses not exceeding 0.05 considered 0
[19] = 10 μM VOC, 50 μM VUAA1 = 1, responses not exceeding 0.05 considered 0
[20] = 100 μM VOC, 50 μM VUAA1 = 1, responses not exceeding 0.05 considered 0

Row | Compound | OR71a response (VUAA1-normalized) at 1 μM ([1]; VOC concentration 1 μM) | OR71a response (VUAA1-normalized) at 10 μM ([1]; VOC concentration 10 μM) | OR71a response (VUAA1-normalized) at 100 μM ([1]; VOC concentration 100 μM) | Average response ([1]; cc. 1 µM) | Average response ([1]; cc. 10 µM) | Average response ([1]; cc. 100 µM) | DF norm AVERAGE OR71a [1, 3] | DF norm AVERAGE OR71a [1, 4] | DF norm AVERAGE OR71a [1, 5] | activation at 1 µM [2, 6] [%] | activation at 10 µM [2, 7] [%] | activation at 100 µM [2, 8] [%] | OR13a response (VUAA1-normalized) at 1 μM ([2]; VOC concentration 1 μM) | OR13a response (VUAA1-normalized) at 10 μM ([2]; VOC concentration 10 μM) | DF norm AVERAGE OR71a [1, 9] | DF norm AVERAGE OR71a [1, 10] | DF norm AVERAGE OR71a [1, 11] | DF norm AVERAGE OR13a [2, 9] | DF norm AVERAGE OR13a [2, 10] | DF norm AVERAGE OR13a [2, 11] | further results
1 | CCCOC(C)=O [propyl acetate] | 0.00 | 0.00 | 0.00 | 0.0434 | 0.025 | 0.00 | 0 | 0 | 0 | 0 | 0 | 0 | 0.00 | 0.00 | – | – | – | – | – | – | OR13a response (VUAA1-normalized) at 100 μM ([2]; VOC concentration 100 μM): 0.00; DF norm AVERAGE OR13a [2, 3]: 0; DF norm AVERAGE OR13a [2, 4]: 0; DF norm AVERAGE OR13a [2, 5]: 0
2 | CCCCCCCCC(CO)CCCCCC (stereo not drawn) [2-hexyl-1-decanol] | – | – | – | 0.00 | 0.00 | 0.00 | – | – | – | 7 | 0 | 0 | – | – | 0 | 0 | 0 | 0.07079 | 0 | 0 | activation at 1 µM [1]: 0%; activation at 10 µM [1]: 0%; activation at 100 µM [1]: 0%; activation at 1 µM [2, 12]: 7%; activation at 10 µM [2, 13]: 0%; activation at 100 µM [2, 14]: 0%
3 | CC1=CCC23CC1C(C)(C)C2CCC3C (stereo not drawn) [α-funebrene] | 0.00 | 0.00 | 0.00 | 0.00 | 0.00 | 0.00 | – | – | – | 0 | 0 | 0 | 0.00 | 0.00 | – | – | – | – | – | – | DF norm AVERAGE OR71a [1, 15]: 0; DF norm AVERAGE OR71a [1, 16]: 0; DF norm AVERAGE OR71a [1, 17]: 0; OR13a response (VUAA1-normalized) at 100 μM ([2]; VOC concentration 100 μM): 0.00; DF norm AVERAGE OR13a [2, 15]: 0; DF norm AVERAGE OR13a [2, 16]: 0; DF norm AVERAGE OR13a [2, 17]: 0
4 | CC/C=C/CCO [e3-hexenol] | – | – | – | 0.00 | 0.0432 | 0.0275 | 0 | 0 | 0 | – | – | – | – | – | – | – | – | – | – | – | OR13a Average response (VUAA1-normalized) [2, 18]: 0.00; OR13a Average response (VUAA1-normalized) [2, 19]: 0.00; OR13a Average response (VUAA1-normalized) [2, 20]: 0.07; DF norm AVERAGE OR13a [2, 3]: 0; DF norm AVERAGE OR13a [2, 4]: 0; DF norm AVERAGE OR13a [2, 5]: 0.07115
5 | (-)-alpha-cedrene | – | – | – | 0.00 | 0.043 | 0.00 | – | – | – | – | – | – | – | – | 0 | 0 | 0 | 0 | 0 | 0 | OR71a response (VUAA1-normalized response) ([1]; VOC concentration 1 μM): 0.00; OR71a response (VUAA1-normalized response) ([1]; VOC concentration 10 μM): 0.00; OR71a response (VUAA1-normalized response) ([1]; VOC concentration 100 μM): 0.00; OR13a Average response (VUAA1-normalized) [2, 18]: 0.00; OR13a Average response (VUAA1-normalized) [2, 19]: 0.00; OR13a Average response (VUAA1-normalized) [2, 20]: 0.00; OR13a response (VUAA1-normalized response) ([2]; VOC concentration 1 μM): 0.00; OR13a response (VUAA1-normalized response) ([2]; VOC concentration 10 μM): 0.00; OR13a response (VUAA1-normalized response) ([2]; VOC concentration 100 μM): 0.00
6 | Cc1ccc(C)c(C)c1 [1,2,4-trimethylbenzene] | – | – | – | 0.00 | 0.00 | 0.00 | – | – | – | 0 | 0 | 0 | – | – | 0 | 0 | 0 | 0 | 0 | 0 | activation at 1 µM [1]: 0%; activation at 10 µM [1]: 0%; activation at 100 µM [1]: 0%; activation at 1 µM [2, 12]: 0%; activation at 10 µM [2, 13]: 0%; activation at 100 µM [2, 14]: 0%
